In a melting point compilation (Tetko et al.; mined from patent text by program, amines drawn as free bases though some values may be those of a salt):

| melting point [°C] | Structure (SMILES) |
| --- | --- |
| 182 | CCOc1ccc(C(=O)N(C)Cc2cccc(-c3ccc(CC4SC(=O)NC4=O)cc3)c2)cc1 (stereo unspecified) |
| 184 | N[C@@H]1CCCN([C@@H]2Cc3ccccc3[C@H]2Oc2cc3c(cc2Cl)NC(=O)CC3)C1 |
| 217 to 220 | C#CCN(Cc1ccc2nc(NC(=O)C(C)(C)C)[nH]c(=O)c2c1)c1ccc(S(=O)(=O)N(C)C)cc1 |
| 93 to 95 | CCOC(=O)C=Cc1cc(OCc2ccccc2)ccc1-c1ccc(-c2cccnc2)c(C(F)F)c1 |
| 151 to 154 | CCCCc1ncc(C(=O)OCC)c(=O)n1Cc1ccc(-c2ccccc2-c2nc(=O)o[nH]2)cc1 |
| 46 to 47 | CC(Br)=C(c1ccccc1)c1ccccc1 |
| 108 to 109 | COC(=O)c1cccc(/C=C/c2ccccc2)c1 |
| 39 to 41 | CC(C)C[C@@H](CO)NC(=O)[C@@H](NC(=O)c1ccc(C=O)o1)C(C)C |
| 102 to 103 | CCN(CC)CCOC(=O)c1nn(-c2ccc(Cl)cc2)c2c1CCc1ccccc1-2 |
| 73.5 to 75 | Cc1ccc(C(OC2CCN(CC(=O)O)CC2)c2ccccc2)cc1 (stereo unspecified) |
| 110 | O=C(NP(=O)(O)CCc1ccccc1)OCc1ccccc1 |
| 150 to 151 | CCCN(Cc1cccc(-c2noc(C)n2)c1)C(=O)Nc1ccc(-c2ccccc2S(=O)(=O)NC(C)(C)C)cc1 |
| > 300 | Cc1nn(-c2ccccn2)c2[nH]c3ccc(S(C)(=O)=O)cc3c(=O)c12 |
| 164 | COc1cc(/C=C2/C(C)=C(CC(=O)O)c3cc(F)ccc32)cc(Br)c1OC |
| 85 to 89 | CC(=O)OC1CSC(Oc2cccnc2C(=O)N(C)C)C(OC(C)=O)C1OC(C)=O (stereo unspecified) |
| 191 to 193 | CC(C)(C)c1cc(C(C)(C)C)[nH]n1 |
| 84 to 85 | CCOC(=O)c1ccc(OCCCCCCCCCCCCCCCOc2ccc(Cl)cc2)cc1 |
| 61 | CCCCCCCCCCCCCCCCCCCCC(=S)NCCCN(CC)CC |
| 218 | CC(C)(C)OC(=O)N1CCN(c2cccc(N)c2)CC1 |
| 130 to 132 | CCOc1cccc(Cn2ncc3c(N4CCN(C(=O)OC(C)(C)C)CC4)ncnc32)n1 |
| 94.5 to 96 | Cc1nc(C)c(C(C)(O)c2ccccc2)o1 (stereo unspecified) |
| 168 to 171 | OCc1nc2n(n1)-c1ccccc1N(c1cccc(C(F)(F)F)c1)C2 |
| 162 to 164 | CS(=O)(=O)Nc1ccc(C(=O)C2CCN(CCCOc3ccc([N+](=O)[O-])cc3)CC2)cc1 |
| 98 to 100 | Cn1nnnc1SCC(CS(=O)(=O)c1ccc(-c2ccc(Cl)cc2)cc1)C(=O)O (stereo unspecified) |

| melting point [°C] | Structure (SMILES) |
| --- | --- |
| 165 to 168 | O=C(O)CCc1cc2cc(Cl)ccc2n1S(=O)(=O)c1ccccc1 |
| 100 to 102 | CCOc1c(CO)cnc2c1cnn2CC |
| 129 to 131 | Nc1nc(OCc2ccc(F)cc2)ncc1F |
| 111 to 112 | CCOC(=O)c1ccc(CC(=O)NC(CC(C)C)c2ccccc2N2CCCCC2)cc1OCC (stereo unspecified) |
| 225 | N#Cc1nc2cccc(O)c2s1 |
| 184 | CC(=O)OC1CSC(Oc2cncc(-c3ccco3)c2)C(OC(C)=O)C1OC(C)=O (stereo unspecified) |
| 119 to 120 | CCc1nccc(NC2COC(c3ccccc3)OC2)c1Cl (stereo unspecified) |
| 171 to 172 | CC(C)Cn1c(C(=O)O)c(-c2cccs2)c2cc(OCc3ccccc3)ccc2c1=O |
| 120 to 121 | C=C(C)OC(=O)N1c2nc(C)ccc2NC(=S)C1C (racemic) |
| 256 | COc1c(N2CCC(n3cc(C)nn3)C2)c(F)c(N)c2c(=O)c(C(=O)O)cn(C3CC3)c12 (stereo unspecified) |
| > 300 | Nc1nc(O)c2c(n1)CCCS2 |
| 125 to 128 | CNC(=O)N(O)C(C)c1ccc(OCc2ccccc2)cc1 (stereo unspecified) |
| 78 to 80 | CC(C)c1nc(COCc2ccccc2)n(CCO)c1Sc1cc(Cl)cc(Cl)c1 |
| 104 to 106 | COC(=O)c1cc([N+](=O)[O-])c(Cl)c([N+](=O)[O-])c1 |
| 172 | CC(=O)OCC1OC(n2nnnc2Cl)C(OC(C)=O)C(OC(C)=O)C1OC(C)=O (stereo unspecified) |
| 219 | Cc1cc2nc3c4cc([N+](=O)[O-])ccc4n(CCN(C)C)c3nc2cc1C |
| 130 to 132 | CCCSC(C(N)=O)c1cc(C)cc(C(=O)c2ccc(F)cc2)c1N (stereo unspecified) |
| 142 to 152 | O=C(NCCN1CCCC1)c1ccc(=O)n(Cc2ccc(-c3ccccc3)cc2)c1 |
| 215 to 217 | CCCn1cnc2c1c1nnc(-c3ccccc3)n1c(=O)n2CCC |
| 70 to 71 | Nc1ccccc1Sc1ccc2c(c1)OCC(=O)N2 |
| 86 to 87 | COC(=O)[C@@H]1O[C@H]1c1ccc(OC)cc1 |
| 102 to 105 | CN(C)CCNC(=O)c1cc(S(C)(=O)=O)c(Cl)cc1NCc1ccco1 |
| 74.7 | CS(=O)C=C1C(C)(C)CCC1(C)C (stereo unspecified) |
| 140 to 141 | CC(C)(C)OC(=O)CCC(CCC(=O)OC(C)(C)C)(CCC(=O)OC(C)(C)C)NC(=O)C=C=C[N+](=O)[O-] |

| melting point [°C] | Structure (SMILES) |
| --- | --- |
| 216 to 219 | COCCc1ccc(-c2ccc3c(c2)C=C(C(=O)Nc2ccc(CN(C)C4CCOCC4)cc2)CCS3(=O)=O)cc1 |
| 256 to 258 | c1csc(-c2ccc3cc(-c4cccs4)ccc3c2)c1 |
| 148 to 150 | O=C(c1cccs1)c1cccnc1N1CCCC1=O |
| 142 | CCNc1nc(OC)c(C(=O)NCCN(CC)CC)nc1Cl |
| 81 to 84 | CCC(COc1cccc(COc2cccc3ccc(=O)[nH]c23)c1)OC(C)=O (stereo unspecified) |
| 105 to 107 | COc1ccc2cc([C@H](C)C(=O)OCC(=O)COC(=O)c3ccc(CO[N+](=O)[O-])cc3)ccc2c1 |
| 92 to 95 | O=Cc1c(Cl)nc(-c2ccccc2)n1Cc1ccc(Br)cc1 |
| 146 to 147 | C[C@]1(COc2ccc(N3CCC(Nc4ccc(Cl)c(Cl)c4)CC3)cc2)Cn2cc([N+](=O)[O-])nc2O1 |
| 130 to 131 | Sc1nccn1Cc1ccsc1 |
| 106 to 108 | CC1CC(c2cc3c(C(F)(F)F)cccc3s2)CCN1 (stereo unspecified) |
| 176 to 182 | OCC1OC(n2cnc3c(NC4CCN(Cc5ccccc5)CC4)ncnc32)C(O)C1O (stereo unspecified) |
| 163 to 164 | CC(Cc1ccc(-c2ncc(NC(=O)C(F)(F)F)o2)cc1)N1CC(c2cccc(Cl)c2)OC1=O (stereo unspecified) |
| 280 to 285 | O=S(=O)(O)c1ccc(Nc2ccnc3cc(Cl)ccc23)cc1Cl |
| 138 to 141 | CC(Oc1ccccc1C(C)C)C(=O)OC1CC(O)C=C2C=CC(C)C(CCC3CC(O)CC(=O)O3)C21 (mixture of isomers) |
| 134 | NC(=O)C(c1ccccc1)c1ccccn1 (racemic) |
| 114 to 116 | N=C(Cc1ccccc1)Nc1ncccc1OCc1ccccc1 |
| 61 to 63 | O=C(CCCCCCOc1ccccc1)c1nnc(COCc2ccccc2)o1 |
| 148 to 150 | COc1cc2c(cc1OC)/C(=C/c1cc(OC)c(OC)c(OC)c1)N(C(=O)Cc1cc(OC)c(OC)c(OC)c1)CC2 |
| 115 to 117 | CCOC(=O)C(=CNc1cccc(C2=NC(C)(C)Cc3cc(OC)c4c(c32)CC(C)(C)O4)c1)C(=O)OCC |
| 101 to 102 | Cc1nc2c(s1)CC(CO)CC2 (stereo unspecified) |
| 140 to 142 | O=C(O)COc1ccc(SCc2ccc(OCc3ccc(OC(F)(F)F)cc3)cc2)c2c1CCC2 |
| 119 to 121 | CC(=O)OC(=O)c1cc(CCl)ccc1O |
| 145 to 147 | Cc1ccc2c(c1)OC1(O)c3ccccc3C(=O)C21O (stereo unspecified) |
| 186 to 188 | Cc1cccc2ncc(C(=O)Nc3ccccc3)c(=O)n12 |

| melting point [°C] | Structure (SMILES) |
| --- | --- |
| 147 to 148 | CCc1noc(-c2cn(-c3nccs3)cn2)n1 |
| 249 to 250 | CC(=NNC(N)=O)c1ccc2nnn(Cc3ccc4ncccc4c3)c2n1 |
| 128 to 129 | CCOC(=O)c1csc2cc(O)ccc12 |
| 170 to 172 | O=C1Nc2c(O)cc(Cl)cc2C(C#CC2CC2)(C(F)(F)F)O1 (single isomer, unassigned; (-)) |
| 244 to 247 | CC(c1oc2ccccc2c(=O)c1-c1cccc(F)c1)n1nc(-c2ccc(O)c(F)c2)c2c(N)ncnc21 (stereo unspecified) |
| 85 to 88 | Cc1ccc(S(=O)(=O)NC[C@H](C)NCc2c(Cl)ccc([N+](=O)[O-])c2Cl)cc1 |
| 120 to 140 | CS(=O)(=O)NCC(=O)N1CCC(C2c3ncc(Br)cc3CCc3cc(Cl)cc(Cl)c32)CC1 (single isomer, unassigned; (+)) |
| 121 to 122 | OC(CNc1ccccc1)c1cc(C(F)(F)F)nc2c(C(F)(F)F)cccc12 (stereo unspecified) |
| 114 to 115 | Clc1ccc(Nc2nc3ccccc3c3[nH]c(C4CCCC4)nc23)cc1Cl |
| 243 to 245 | Fc1ccc(-c2nn3c(-c4ccccc4)cc(-c4ccccc4)nc3c2-c2ccncc2)cc1 |
| 239 to 241 | CC1CNc2c(cnc3cc(Cl)ccc23)O1 (stereo unspecified) |
| 58 to 61 | CCCCCNC(=O)c1cc(N2CCN(C(=O)c3ccccc3C(F)(F)F)CC2)nn1C(=O)OCc1ccccc1 |
| 221 to 225 | CS(=O)(=O)Nc1ccc(NC(=O)C(=O)N2CCC(Cc3ccccc3)CC2)cc1 |
| 170 to 175 | CCP(=O)(OC)C(O)C(CC1CCCCC1)NC(=O)[C@H](CC(C)C)NC(=O)CCc1ccccc1 (stereo partly specified) |
| 93 to 97 | OCC1(CO)CC(Cc2ccc(F)cc2)=NO1 |
| 85.5 to 86.5 | CCCCCCCCCCCCCCCCCCSC(=O)Nc1ccccc1 |
| 111 to 112 | OCc1c(Cl)cc(Cl)cc1Br |
| 126 to 127 | CN(CCN(C)c1ccc([N+](=O)[O-])cc1)c1ccncc1 |
| 109 to 112 | COCC(C)Oc1cc(Oc2ccc(S(C)(=O)=O)cc2)cc2cc(C3=NCC(C(OC)OC)S3)[nH]c12 (stereo unspecified) |
| 93 to 96 | CC(C)(C)S(=O)(=O)N1C[C@H](O)C[C@@H]1c1cc(F)cc(C#N)c1 |
| 210 to 212 | CC(=O)OC(CCC(C)(C)C)C(C)C1CCC2C3CC=C4CC(O)CCC4(C)C3CCC12C (stereo unspecified) |
| 53 to 56 | O=C(CBr)c1ccc(OCc2ccccc2)c(CCOCc2ccccc2)c1 |

| Structure (SMILES) | melting point [°C] |
| --- | --- |
| O=C(Nc1cnc2scnc2c1)c1cc2cc(F)ccc2n1Cc1cccc(F)c1 | 250 to 251 |
| Clc1ccc([C@H]2C[C@@H]3CC[C@@H]4[C@H]2C(=NOCc2ccccc2)CN34)cc1Cl | 72 to 74 |
